From paper PMC6271935, “Synthesis and Broad-Spectrum Antiviral Activity of Some Novel Benzo-Heterocyclic Amine Compounds” (Molecules, 2014)
Where “and” joins values, the source holds several entries; their conditions need not be identical. Identical values can stand only once.

Columns and labels:
[1] = test system: Influenza A/hanfang/359/95; assay: microbe, parasite or virus in culture; format: cell-based; conditions: Influenza A virus, MDCK
MDCK cells = assay: Cytotoxicity in MDCK cells (CPE); format: cell-based, Canine; conditions: 48 h, Reed & Muench
Method: (§1) The cytotoxicity of the compounds in MDCK, Vero and HepG2.2.15 cells was monitored via cytopathic effect (CPE) assays. The MDCK and Vero cells (2.5 × 10^4 /well) were plated in a 96-well plate. Following a 24 h hold period, the monolayer of cells was incubated in the presence of various concentrations of the test compounds. […] The TC50 value was calculated using Reed & Muench analysis.

Cox B3 = assay: organism not typed; format: cell-based, Coxsackie viruses (Cox B3 Nancy strain); conditions: Vero
HCV = assay: Anti-HCV assay in Huh7.5 cells, intracellular HCV RNA by real time RT-PCR; format: cell-based; conditions: Hepatitis C virus, 96 h
Huh7.5 cells = assay: Cytotoxicity in Huh7.5 cells (MTT); format: cell-based, human; conditions: 96 h
Method: The Huh7.5 cells (1 × 10^4 cells/well) were plated in 96-well plates. Six hours later the culture media was replaced with fresh medium containing the test compounds at various concentrations. Cytotoxicity was evaluated with the 3-(4,5-dimethylthiazol-2-yl)-2,5-diphenyltetrazolium bromide (MTT) assay after 96 h.
Huh7.5 cells were seeded at a density of 3 × 10^4 cells/cm^2. After 24 h of incubation, the cells were infected with an HCV viral stock (approximately 45 IU per cell) and simultaneously treated with Telaprevir, the test compounds, or the solvent control. The culture medium was removed 96 h after inoculation, and the total intracellular RNA and total intracellular proteins were extracted with a Qiagen Kit according to the manufacturer’s instructions. Intracellular HCV RNA was quantified using a one-step real time RT-PCR kit (Invitrogen). Cytotoxicity was tested by the MTT assay, and IC50 values were calculated by the Reed and Muench methods.

HBV = assay: Anti-HBV assay in HepG2.2.15 cells, viral DNA by real time PCR; format: cell-based, Hepatitis B virus; conditions: for IC50: Hepatitis B virus, HepG2.2.15, 144 h, intracellular viral DNA, 3 + 3 days
Method: The synthesized target compounds were assayed for their broad spectrum antiviral activity towards influenza A, HBV, HCV and Cox B3 virus in vitro. […] The inhibitory activities towards HBV and HCV were tested by real time PCR, and lamivudine (3TC) and teleprevir were used as positive controls, respectively.
The anti-HBV activities of test compounds and a positive control drug were tested in HepG2.2.15 cells. The HepG2.2.15 cells were cultured in 96-well plates and treated with the test compounds at 37 °C for 3 days. The medium was removed, and fresh medium containing the test compounds was added for an additional 3 days. The cells were harvested and intracellular DNA was extracted. The inhibition of viral DNA replication in treated cells versus untreated cells was determined by real time PCR.

HepG2.2.15 cells = assay: Cytotoxicity in HepG2.2.15 cells (CPE); format: cell-based, human; conditions: 3 + 3 days
Method: Cells were cultured for 3 days at 37 °C in a 5% CO2 atmosphere in an incubator, and the medium was replaced with fresh medium containing the test compounds for an additional 3 days. The cells were subsequently monitored by CPE and the TC50 value was calculated using Reed and Muench analysis.

Vero cells = assay: Cytotoxicity in Vero cells (CPE); conditions: 48 h, Reed & Muench
Method: as §1

[2] = test system: influenza A, HCV, Cox B3 virus and HBV; assay: Broad-spectrum antiviral panel (summary over all four antiviral assays); format: cell-based; conditions: range/approximate value over influenza A, read-out: IC50 over the entire virus panel

Row | Compound | IC50 [1] | TC50 (50% cytotoxic concentration), Influenza A/hanfang/359/95 (MDCK cells) | IC50 (Cox B3) | IC50 (HCV) | TC50 (50% cytotoxic concentration), HCV (Huh7.5 cells) | IC50 (HBV) | TC50 (50% cytotoxic concentration), HBV (HepG2.2.15 cells) | melting point | TC50 (50% cytotoxic concentration), Cox B3 (Vero cells) | anti-HBV activity (in words) (HBV) | IC50 [2]
1 | O=[N+]([O-])c1ccc(CNc2ccc3ncoc3c2)cc1 [2b, Benzooxazol-6-yl-(4-nitrobenzyl)-amine] | 41.3 µM | 288.23 µM | 31.3 µM | > 66.7 µM | >200 µM | > 5.56 µM | 16.67 µM | 154 to 156 °C | 257.52 µM | – | –
2 | C(=C\c1ccccc1)/CNc1ccc2ncoc2c1 [2c, (E)-Benzooxazol-6-yl-(3-phenylallyl)-amine] | 11.6 µM | 133.16 µM | 1.24 µM | 10.5 µM | 105.44 µM | > 16.7 µM | 28.87 µM | 100 to 103 °C | 103.36 µM | – | –
3 | Clc1ccc(CNc2ccc3ncoc3c2)s1 [2e, Benzooxazol-6-yl-(5-chlorothiophen-2-ylmethyl)-amine] | 11 µM | 87.30 µM | 3.55 µM | 17.7 µM | 45.78 µM | > 11.1 µM | 19.25 µM | 100 to 102 °C | 29.08 µM | – | –
4 | COc1cc(CNc2ccc3ncsc3c2)cc(Br)c1O [3a, 4-(Benzothiazol-6-ylaminomethyl)-2-bromo-6-methoxyphenol] | > 10.1 µM | 21.08 µM | 10.1 µM | 49 µM | 108.82 µM | > 16.7 µM | 28.87 µM | 193 to 195 °C | 21.08 µM | – | –
5 | COc1cccc(CNc2ccc3ncsc3c2)c1O [3b, 2-(Benzothiazol-6-ylaminomethyl)-6-methoxyphenol] | 10 µM | 55.95 µM | 5.66 µM | 38 µM | 126.59 µM | > 33.3 µM | 57.74 µM | 206 to 208 °C | 67.23 µM | – | –
6 | C(=C\c1ccccc1)/CNc1ccc2ncsc2c1 [3e, (E)-benzothiazol-6-yl-(3-phenyl-allyl)-amine] | 8.6 µM | 24.10 µM | 1.16 µM | 9.75 µM | 43.58 µM | > 5.56 µM | 9.62 µM | 99 to 101 °C | 20.05 µM | did not exhibit any activity | –
7 | COc1ccccc1/C=C/CNc1ccc2ncsc2c1 [3f, (E)-benzothiazol-6-yl-[3-(2-methoxy-phenyl)-allyl]-amine] | 4.15 µM | 21.66 µM | 3.21 µM | 5.04 µM | 54.99 µM | 5.06 µM | 28.87 µM | 107 to 109 °C | 12.48 µM | – | 3.21 to 5.06 µM and ~5 µM
8 | Cc1ccc(CNc2ccc3ncsc3c2)o1 [3g, Benzothiazol-6-yl-(5-methylfuran-2-ylmethyl)-amine] | 26.2 µM | 94.60 µM | 5.03 µM | 34.9 µM | 138.38 µM | 0.7 µM | 21.48 µM | 52 to 54 °C | 65.57 µM | – | 0.71 to 34.9 µM
9 | Clc1ccc(CNc2ccc3ncsc3c2)s1 [3i, Benzothiazol-6-yl-(5-chlorothiophen-2-ylmethyl)-amine] | 3.42 µM | 27.42 µM | 2.53 µM | 9.81 µM | 38.24 µM | > 5.56 µM | 9.62 µM | 104 to 106 °C | 13.18 µM | – | –
10 | c1ncc(CNc2ccc3ncsc3c2)cn1 [3j, Benzothiazol-6-yl-pyrimidin-5-ylmethyl-amine] | 214 µM | 826.44 µM | 53 µM | > 66.7 µM | >200 µM | > 16.7 µM | 28.87 µM | 127 to 129 °C | 826.44 µM | – | –
11 | Cc1ccc(CNc2ccc3nc[nH]c3c2)o1 [4b, (3H-Benzoimidazol-5-yl)-(5-methyl-furan-2-ylmethyl)-amine] | 21.4 µM | 440.02 µM | 48.9 µM | 24.4 µM | >200 µM | > 50 µM | >50 µM | 75 to 77 °C | 254.07 µM | complete loss of antiviral activity | –
